Broadly, the EC50 is the concentration needed to bring the measured effect to its halfway point.

The source of these data is patent publication US11708376B2 (VIRGINIA TECH INTELLECTUAL PROPERTIES, INC., priority 2018, dated 2023).

This assay relates to whole cells (NMuLi, C2Cl2, and L6 cells, isolated cardiomyocytes, human primary fibroblasts). The experiment in a line: Oxygen consumption rate (OCR) in whole cells, Seahorse XF-24 Flux Analyzer. The class given is cell-based. Particulars: cell type for Table 1 not stated, read-out: OCR Activity (increase in OCR), binned EC50. The procedure: Biological activities of the compounds synthesized is determined by determining increase in oxygen consumption rate (OCR).
Oxygen consumption rate (OCR) in whole cells is measured in general accordance with the method of Kenwood B M et al. (Mol. Met. (2014) 3: 114-123).
OCR is measured using a Seahorse XF-24 Flux Analyzer (Seahorse Biosciences, North Billerica, Mass.). NMuLi, C2Cl2, and L6 cells are seeded in a Seahorse 24-well tissue culture plate at a density of 3.5×10^4 cells/well, isolated cardiomyocytes at a density of 4×10^4 cells/well, and human primary fibroblasts at a density of 1.1×10^4 cells/well. The cells are then allowed to adhere for 24 h. Prior to the assay, the media is changed to unbuffered DMEM containing pyruvate and glutamine (Gibco #12800-017, pH=7.4 at 37° C.) and the cells are equilibrated for 30 mins at 37° C. Compounds are injected during the assay and OCR is measured using 2 min measurement periods.
2-3 wells are used per condition and averaged over three plates (n=6-9). Statistical significance is determined by two-way ANOVA with Bonfenoni's posttest.
Activities are reported as binned EC50 values: A=5 μM or less; B=>5 to 20 μM; C=over 20 μM; NA=no effect.
`COc1nc2[nH]c(C(F)(F)F)nc2nc1Nc1ccc(OC(F)(F)F)cc1` [Compound 2-1, 6-methoxy-N-(4-(trifluoromethoxy)phenyl)-2-(trifluoromethyl)-1H-imidazo[4,5-b]pyrazin-5-amine]: the EC50 is above 20 µM. `CCCCc1ccc(Nc2nc3nc(C(F)(F)F)[nH]c3nc2OC)cc1` [Compound 2-2, 6-methoxy-N-(4-(N-butyl)phenyl)-2-(trifluoromethyl)-1H-imidazo[4,5-b]pyrazin-5-amine]: the EC50 was 5 to 20 µM.

Take `COc1nc2[nH]c(C(F)(F)F)nc2nc1Nc1cc(C(F)(F)F)ccc1F` [Compound 2-3, 6-methoxy-N-(2-fluoro-5-(trifluoromethyl)phenyl)-2-(trifluoromethyl)-1H-imidazo[4,5-b]pyrazin-5-amine]: the EC50 was above 20 µM.

As to `COc1nc2[nH]c(C(F)(F)F)nc2nc1Nc1cccc(OC(F)(F)F)c1` [Compound 2-4, 6-methoxy-N-(3-(trifluoromethoxy)phenyl)-2-(trifluoromethyl)-1H-imidazo[4,5-b]pyrazin-5-amine], the concentration for a half-maximal effect (EC50) fell in the range of 5 to 20 µM.

`COc1nc2[nH]c(C(F)(F)F)nc2nc1Nc1cc(C(F)(F)F)ccc1C` [Compound 2-5, 6-methoxy-N-(2-methyl-5-(trifluoromethyl)phenyl)-2-(trifluoromethyl)-1H-imidazo[4,5-b]pyrazin-5-amine]: the EC50 was in the range of 5 to 20 µM.

As to `COc1nc2[nH]c(C(F)(F)F)nc2nc1Nc1cccc(C(F)(F)F)c1F` [Compound 2-6, 6-methoxy-N-(2-fluoro-3-(trifluoromethyl)phenyl)-2-(trifluoromethyl)-1H-imidazo[4,5-b]pyrazin-5-amine], the EC50 was at most 5 µM. Take `COc1nc2[nH]c(C(F)(F)F)nc2nc1Nc1cc(C(F)(F)F)cc(C(F)(F)F)c1` [Compound 2-8, 6-methoxy-(3,5-bis(trifluoromethyl)phenyl)-2-(trifluoromethyl)-1H-imidazo[4,5-b]pyrazin-5-amine]: the concentration for a half-maximal effect (EC50) was 5 to 20 µM.

With `COc1nc2[nH]c(C(F)(F)F)nc2nc1Nc1ccccc1F` [Compound 2-9, 6-methoxy-(2-fluorophenyl)-2-(trifluoromethyl)-1H-imidazo[4,5-b]pyrazin-5-amine], the concentration for a half-maximal effect (EC50) was in the range of 5 to 20 µM. In the case of `COc1nc2[nH]c(C(F)(F)F)nc2nc1Nc1ccc(OC(F)(F)F)c(F)c1` [Compound 2-13, 6-methoxy-N-(3-fluoro-4-(trifluoromethoxy)phenyl)-2-(trifluoromethyl)-1H-imidazo[4,5-b]pyrazin-5-amine], the EC50 is 5 to 20 µM.

`COc1nc2[nH]c(C(F)(F)F)nc2nc1Nc1ccc(C(F)(F)F)cc1F` [Compound 2-14, 6-methoxy-N-(2-fluoro-4-(trifluoromethyl)phenyl)-2-(trifluoromethyl)-1H-imidazo[4,5-b]pyrazin-5-amine]: the 50% effective concentration (EC50) is at most 5 µM.

As for `COc1nc2[nH]c(C(F)(F)F)nc2nc1Nc1cc(F)cc(F)c1` [Compound 2-15, 6-methoxy-N-(3,5-difluorophenyl)-2-(trifluoromethyl)-1H-imidazo[4,5-b]pyrazin-5-amine], the EC50 is above 20 µM. With `COc1nc2[nH]c(C(F)(F)F)nc2nc1Nc1cccc(F)c1F` [Compound 2-16, 6-methoxy-N-(2,3-difluorophenyl)-2-(trifluoromethyl)-1H-imidazo[4,5-b]pyrazin-5-amine], the 50% effective concentration (EC50) fell in the range of 5 to 20 µM. In the case of `COc1nc2[nH]c(C(F)(F)F)nc2nc1Nc1ccccc1C(F)(F)F` [Compound 2-17] it was at most 5 µM; in that of `COc1nc2[nH]c(C(F)(F)F)nc2nc1Nc1ccc(-c2ccccc2)cc1` [Compound 2-18, N-([1,1′-biphenyl]-4-yl)-6-methoxy-2-(trifluoromethyl)-1H-imidazo[4,5-b]pyrazin-5-amine], above 20 µM; in that of `COc1nc2[nH]c(C(F)(F)F)nc2nc1Nc1ccc(C(C)(C)C)cc1` [Compound 2-19, 6-methoxy-N-(4-(tert-butyl)phenyl)-2-(trifluoromethyl)-1H-imidazo[4,5-b]pyrazin-5-amine], 5 to 20 µM. In the case of `COc1nc2[nH]c(C(F)(F)F)nc2nc1Nc1ccc2ccccc2c1` [Compound 2-20, 6-methoxy-N-(naphthalen-2-yl)-2-(trifluoromethyl)-1H-imidazo[4,5-b]pyrazin-5-amine] it was 5 to 20 µM; in that of `COc1nc2[nH]c(C(F)(F)F)nc2nc1Nc1ccc(C(F)(F)F)cc1` [Compound 2-22, 6-methoxy-N-(4-(trifluoromethyl)phenyl)-2-(trifluoromethyl)-1H-imidazo[4,5-b]pyrazin-5-amine], 5 to 20 µM. As to `COc1nc2[nH]c(C(F)(F)F)nc2nc1Nc1ccc(C(F)(F)F)c(F)c1` [Compound 2-23, 6-methoxy-N-(3-fluoro-4-(trifluoromethyl)phenyl)-2-(trifluoromethyl)-1H-imidazo[4,5-b]pyrazin-5-amine], the EC50 is above 20 µM.

Consider `COc1nc2[nH]c(C(F)(F)F)nc2nc1Nc1ccc(Cl)cc1` [Compound 2-26, 6-methoxy-N-(4-chlorophenyl)-2-(trifluoromethyl)-1H-imidazo[4,5-b]pyrazin-5-amine], for which the concentration for a half-maximal effect (EC50) was 5 to 20 µM. For `COc1nc2[nH]c(C(F)(F)F)nc2nc1Nc1ccc(I)cc1` [Compound 2-30, 6-methoxy-N-(4-iodophenyl)-2-(trifluoromethyl)-1H-imidazo[4,5-b]pyrazin-5-amine], the 50% effective concentration (EC50) fell in the range of 5 to 20 µM. For `COc1nc2[nH]c(C(F)(F)F)nc2nc1Nc1cccc(I)c1` [Compound 2-31, 6-methoxy-N-(3-iodophenyl)-2-(trifluoromethyl)-1H-imidazo[4,5-b]pyrazin-5-amine], the EC50 was in the range of 5 to 20 µM. For the compound `COc1nc2[nH]c(C(F)(F)F)nc2nc1Nc1cccc(C(F)(F)F)c1` [Compound 2-32, 6-methoxy-N-(3-(trifluoromethyl)phenyl)-2-(trifluoromethyl)-1H-imidazo[4,5-b]pyrazin-5-amine], the concentration giving a half-maximal response (EC50) lay within 5 to 20 µM. Consider `COc1nc2[nH]c(C(F)(F)F)nc2nc1Nc1ccc(C(C)(C)C)cc1F` [Compound 2-33, 6-methoxy-N-(2-fluoro-4-(tert-butyl)phenyl)-2-(trifluoromethyl)-1H-imidazo[4,5-b]pyrazin-5-amine], for which the half-maximal effective concentration (EC50) lay within 5 to 20 µM. Regarding `COc1nc2[nH]c(C(F)(F)C(F)(F)F)nc2nc1Nc1cccc(C(F)(F)F)c1F` [Compound 2-34], the concentration for a half-maximal effect (EC50) was 5 to 20 µM. As to `CCCCOc1nc2[nH]c(C(F)(F)F)nc2nc1Nc1ccc(OC(F)(F)F)cc1` [Compound 2-35, 6-butoxy-N-(4-(trifluoromethoxy)phenyl)-2-(trifluoromethyl)-1H-imidazo[4,5-b]pyrazin-5-amine], the EC50 is above 20 µM. With `FC(F)(F)COc1nc2[nH]c(C(F)(F)F)nc2nc1Nc1ccc(OC(F)(F)F)cc1` [Compound 2-36, 6-(2,2,2-trifluoroethoxy)-N-(4-(trifluoromethoxy)phenyl)-2-(trifluoromethyl)-1H-imidazo[4,5-b]pyrazin-5-amine], the EC50 is at most 5 µM. Consider `CCOc1nc2[nH]c(C(F)(F)F)nc2nc1Nc1ccc(OC(F)(F)F)cc1` [Compound 2-37, 6-ethoxy-N-(4-(trifluoromethoxy)phenyl)-2-(trifluoromethyl)-1H-imidazo[4,5-b]pyrazin-5-amine], for which the EC50 is above 20 µM.

For the compound `CCOc1nc2[nH]c(C(F)(F)F)nc2nc1Nc1ccc(OC(F)(F)F)cc1F` [Compound 2-38, 6-ethoxy-N-(2-fluoro-4-(trifluoromethoxy)phenyl)-2-(trifluoromethyl)-1H-imidazo[4,5-b]pyrazin-5-amine], the EC50 lay within 5 to 20 µM.
